Like-named read-outs stand apart in the source and are kept apart here.
Assay: logP determination by HPLC on a reversed-phase column (C 18), EEC Directive 79/831 Annex V.A8
Conditions: for chromatographic logP: reversed-phase C18 HPLC column
Procedure: Temperature: 40° C.; Mobile phases: 0.1% aqueous formic acid and acetonitrile; linear gradient from 10% acetonitrile to 90% acetonitrile.

[1] = HPLC reversed-phase C18, 40° C., 0.1% aqueous formic acid and acetonitrile, gradient 10% to 90% acetonitrile

Structure (SMILES)	LogP [1]	other results
Cc1nnnn1C(Cc1ccccc1)=NOCc1csc(NC(=O)C2CC2)n1 [Compound 1]	2.56	–
CCCC(=O)Nc1nc(CON=C(Cc2ccccc2)n2nnnc2C)cs1 [Compound 2]	2.73	–
Cc1nnnn1C(Cc1ccccc1)=NOCc1csc(NC(=S)NCc2ccccc2)n1 [Compound 3]	3.64	–
Cc1nnnn1C(Cc1ccccc1)=NOCc1csc(NC(=O)NC(C)(C)C)n1 [Compound 4]	2.91	–
CCCCCNC(=O)Nc1nc(CON=C(Cc2ccccc2)n2nnnc2C)cs1 [Compound 5]	3.18	–
Cc1nnnn1C(Cc1ccccc1)=NOCc1csc(NC(=O)Cc2ccccc2)n1 [Compound 6]	3.06	–
Cc1nnnn1C(Cc1ccccc1)=NOCc1csc(NC(=O)C(C)(C)C)n1 [Compound 7]	3.15	–
CCCCCC(=O)Nc1nc(CON=C(Cc2ccccc2)n2nnnc2C)cs1 [Compound 8]	3.3	–
Cc1nnnn1C(Cc1ccccc1)=NOCc1csc(NC(=O)CCCc2ccccc2)n1 [Compound 9]	3.61	–
Cc1nnnn1C(Cc1ccccc1)=NOCc1csc(NC(=O)C2CCCC2)n1 [Compound 11]	3.18	–
CCCCCC(=O)Nc1cccc(CON=C(CCc2ccccc2)n2nnnc2C)n1 [Compound 17]	3.84	–
Cc1nnnn1/C(=N/OCc1cccc(N2C(=O)c3ccccc3C2=O)n1)C1CCCCC1 [Compound 22, O-(2-Phtalimidopyridin-6-yl)methyl-(5-methyltetrazol-1-yl)-cyclohexylmethanone oxime]	–	chromatographic logP: 3.46
Cc1nnnn1/C(=N/OCc1cccc(N)n1)C1CCCCC1 [Compound 23, O-(2-Aminopyridin-6-yl)methyl-(5-methyltetrazol-1-yl)-cyclohexylmethanone oxime]	–	chromatographic logP: 1.43
COc1ccc(C(=O)Nc2cccc(CON=C(C3CCCCC3)n3nnnc3C)n2)cc1 [Compound 24]	3.99	–
COc1ccc(OC(=O)Nc2cccc(CON=C(C3CCCCC3)n3nnnc3C)n2)cc1 [Compound 26]	4.16	–
CCCCCC(=O)Nc1cccc(CO/N=C(\C2CCCCC2)n2nnnc2C)n1 [Compound 27, O-(2-n-Pentylcarbonylaminopyridin-6-yl)methyl-(5-methyltetrazol-1-yl)-cyclohexylmethanone oxime]	–	chromatographic logP: 4.39
CCCCCOC(=O)Nc1cccc(CON=C(C2CCCCC2)n2nnnc2C)n1 [Compound 29]	5	–
Cc1nnnn1C(=NOCc1cccc(NC(=O)C(C)(C)C)n1)C1CCCCC1 [Compound 30]	3.96	–
CCCC(=O)Nc1cccc(CON=C(C2CCCCC2)n2nnnc2C)n1 [Compound 33]	3.55	–

Structure (SMILES)	LogP [1]	other results
COCCNC(=O)Nc1cccc(CON=C(C2CCCCC2)n2nnnc2C)n1 [Compound 38]	2.78	–
Cc1nnnn1C(=NOCc1cccc(N)n1)C1CC1 [Compound 41]	0.87	–
Cc1nnnn1C(=NOCc1cccc(NC(=O)NCCc2ccc(F)cc2)n1)C1CC1 [Compound 44]	2.5	–
Cc1nnnn1C(=NOCc1cccc(NC(=O)NC2CC2)n1)C1CC1 [Compound 46]	1.88	–
Cc1nnnn1C(=NOCc1cccc(NC(=O)C2CC2)n1)C1CC1 [Compound 48]	2.11	–
CCCNC(=O)Nc1cccc(CON=C(C2CC2)n2nnnc2C)n1 [Compound 50]	2.09	–
COc1ccc(CCNC(=O)Nc2cccc(CON=C(C3CC3)n3nnnc3C)n2)cc1 [Compound 51]	2.44	–
Cc1nnnn1C(=NOCc1nsc(N)n1)c1cccc(Cl)c1 [Compound 65, O-(5-Amino-1,2,4-thiadiazol-3-yl)methyl-(3-chlorophenyl-5-methyltetrazol-1-yl)methanone oxime]	–	LogP: 2.17
Cc1ccc(C(=NOCc2nsc(N)n2)c2nnnn2C)cc1 [Compound 68]	2.07	–
Cc1ccc(C(=NOCc2nsc(NC(=O)Cc3ccccc3)n2)c2nnnn2C)cc1 [Compound 69]	3.22	–
CCCCCC(=O)Nc1cccc(CON=C(c2nnnn2C)C2CCCCC2)n1 [Compound 71]	4.25	–
Cn1nnnc1C(=NOCc1cccc(NC(=O)C2CC2)n1)C1CCCCC1 [Compound 73]	3.2	–
Cn1nnnc1C(=NOCc1cccc(NC(=O)C(F)(F)F)n1)C1CCCCC1 [Compound 76]	3.69	–
Cn1nnnc1C(=NOCc1nccc(N)n1)c1ccccc1 [Compound 77]	0.92	–
CCCCCC(=O)Nc1ccnc(CON=C(c2ccccc2)c2nnnn2C)n1 [Compound 78]	3.46	–
Cn1nnnc1C(=NOCc1nccc(NC(=O)C(C)(C)C)n1)c1ccccc1 [Compound 79]	3.06	–
Cn1nnnc1C(=NOCc1nccc(NC(=O)C2CC2)n1)c1ccccc1 [Compound 80]	2.5	–
CC(C)C(=O)Nc1ccnc(CON=C(c2ccccc2)c2nnnn2C)n1 [Compound 81]	2.68	–
CC(C)CC(=O)Nc1ccnc(CON=C(c2ccccc2)c2nnnn2C)n1 [Compound 82]	3	–

Reference: patent US8119646B2, “Fungicide hydroximoyl-tetrazole derivatives” (Bayer CropScience AG, priority 2006, dated 2012)
